Reference: patent US11078496B2, “System for F-box hormone receptor regulated protein expression in mammalian cells” (ICAHN SCHOOL OF MEDICINE AT MOUNT SINAI, priority 2016, dated 2021)

Columns and labels:
[1] = tested on: dnMAML1-NLS-GFP-OsJAZ^33 (dnM1-GFP-J); experiment: Coronatine-dependent degradation of dnM1-GFP-J in hESCs (fluorescence microscopy); assay type: cell-based, human; settings: hESCs harboring pRAIDRS NICD-A and pJAZ dnM1-GFP-J, 50 μM coronatine, 1 day
Protocol: FIGS. 14A-14C illustrate a dual switch for dissection of NOTCH1 function in hESCs. H9 hESCs were infected with pRAIDRS harboring an shRNA targeting the full-length NOTCH1 receptor and an NICD-AID^47 CDS (“NICD-A”). As a control, cells were infected with pRAIDRS NLS-GFP-AID^47 (“GFP-A”). Cells were maintained with 250 μM auxin to prevent NICD-A accumulation. Following selection and isolation of colonies with ESC morphology, cells were infected with pJAZ dnMAML1-NLS-GFP-OsJAZ^33 (“dnM1-GFP-J”) or pJAZ NLS-GFP-OsJAZ^33 (“GFP-J”) as control and post-selection colonies were expanded. FIG. 14A is a western blot analysis of pRAIDRS GFP-A and NICD-A hESCs maintained in the presence of 250 μM auxin (“IAA”), washed and incubated for 4 h in the presence (+) or absence (−) of auxin. […] Dashed lines mark colony borders. […] Dashed lines indicate instances where coronatine-mediated dnM1-GFP-J degradation restored NICD-A-dependent activity by at least twofold. […] See also FIGS. 13A-13E and 15.
In mice, NOTCH was also implicated in trophectoderm formation (Rayon et al., “Notch and Hippo Converge on Cdx2 to Specify the Trophectoderm Lineage in the Mouse Blastocyst,” Dev. Cell 30:410-422 (2014), which is hereby incorporated by reference in its entirety). […]

[2] = tested on: aphidicolin-treated mESCs; experiment: Mitotic entry after auxin in aphidicolin-treated A-CHK1 mESCs (mitotic index, flow cytometry); assay type: cell-based, mouse; settings: A-CHK1 mESCs pretreated with aphidicolin for 1 day
Protocol: FIG. 5A is a western blot analysis depicting endogenous CHK1 (*) and AID^47-CHK1 (A-CHK1, **) in four selected clones and in parental non-infected mESCs. […] serves as a loading control. Experiment was repeated three times for clones #1 and #2, and a representative blot is presented. In FIG. 5B, A-CHK1 #2 mESCs were treated with ethanol (“Con”) or auxin (“IAA”) for 1 day. Cells were then treated with the indicated concentrations of aphidicolin (“Aph”). Equal concentrations of DMSO were applied to all conditions. The next day, cells were stained with crystal violet and plates were scanned. […] Left panel: mitotic index was calculated as the percentage of H3^pS10-positive cells with 4N DNA content, measured by flow cytometry. […] Tyr15 phosphorylation of CDK1 (“CDKlpY^15”) was detected using a phospho-specific antibody. β-Actin serves as a loading control. […]
Flow cytometry was performed on a BD LSRII machine. For GFP and mOrange fluorescence analysis, cells were trypsinized, neutralized with FBS-containing media, supplemented with […] DAPI and kept on ice. […] GFP and mOrange fluorescence intensities were detected using the fluorescein isothiocyanate (“FITC”) and DsRed channels, respectively. Background autofluorescence was measured using parental noninfected cells. […] To calculate % degradation, relative median fluorescence was subtracted from 1. […]

SMILES | degradation of dnM1-GFP-J [1] | time of synchronous mitotic entry post-auxin treatment [2] [min]
CC[C@H]1C=C(C(=O)N[C@@]2(C(=O)O)C[C@@H]2CC)[C@H]2CCC(=O)[C@H]2C1 [coronatine, Coronatine] | effectively induced degradation | 
O=C(O)Cc1c[nH]c2ccccc12 [auxin, indole-3-acetic acid] |  | 45 to 90
